PMC9952496, “A Novel Strategy for the Design of Aurein 1.2 Analogs with Enhanced Bioactivities by Conjunction of Cell-Penetrating Regions” (Antibiotics, 2023)
Read-outs that look alike come from different tables or passages of the source. Residues, ends and D or L forms follow the SMILES beside them.

Tests used:
E. coli (NCTC 8739) = format: cell-based; conditions: for MIC: NCTC 8739; for MBC: NCTC 8739, 20 h
Protocol: (§1) The antimicrobial activity evaluation was conducted by use of MIC and MBC assays, using three Gram-positive bacteria and three Gram-negative bacteria. The peptides were dissolved in dimethyl sulfoxide (DMSO) for a final concentration series from 1 to 128 µM; 20 µmol of norfloxacin was applied as the positive control, and one µL of DMSO was used as the negative control. The bacteria were inoculated in the corresponding cultural media overnight and subcultured to the desired OD value (OD = 0.23 for Gram-positive bacteria, OD = 0.4 for Gram-negative bacteria corresponding to 5 × 10^5 CFU/mL); 20 mL of culture broth and 100 µL of subcultured bacteria were mixed before being loaded onto the plate, and 1 µL of the peptide cocktail was mixed with 99 µL of diluted bacteria in 96 wells plates and then was incubated for 20 to 24 h at 37 °C. Afterward, the OD value (λ = 550 nm) of each well was detected using a Synergy HT plate reader (Biotech, Minneapolis, MN, USA). The MIC value was the lowest concentration without bacterial growth visually. Subsequently, 10 µL of the solution in each clear well was loaded onto an agar plate and cultured for 20 h. The lowest concentration without colony growth was regarded as the MBC.

E. faecalis (NCTC 12697) = format: cell-based; conditions: for MIC: NCTC 12697; for MBC: NCTC 12697, 20 h
Protocol: as §1

[1] = test system: K. pneumoniae (ATCC 43816); format: cell-based; conditions: for MIC: ATCC 43816; for MBC: ATCC 43816, 20 h
Protocol: as §1

MRSA (ATCC 12493) = format: cell-based; conditions: for MIC: ATCC 12493; for MBC: ATCC 12493, 20 h
Protocol: as §1

[2] = test system: P. aeruginosa (ATCC 9027); format: cell-based; conditions: for MIC: ATCC 9027; for MBC: ATCC 9027, 20 h
Protocol: as §1

[3] = test system: S. aureus (ATCC CRM 6538); format: cell-based; conditions: for MBC: ATCC CRM 6538, 20 h; for MIC: ATCC CRM 6538
Protocol: as §1

[4] = test system: MCF-7 breast cancer cell line; format: cell-based, human
Protocol: (§2) The MTT test measures the anti-proliferation of the peptide by measuring MTT conversion by live cells into a formazan that cannot be dissolved in water. In this section, three cancer cell lines: human non-small-cell lung cancer cell line, NCI-H838 (ATCC-CRL-5844); human glioblastoma astrocytoma cell line, U251MG (ECACC-09063001) and human breast cancer cell line, MCF-7 (ATCC-HTB-22), were selected for the anti-proliferation study. H838 cells were cultured in Roswell Park Memorial Institute (RPMI)-1640 medium (Life Technologies, Paisley, UK) mixed with 10% (v/v) fetal bovine serum (FBS) and 1% penicillin-streptomycin (Gibco, 10,000 U/mL). U251MG and MCF-7 cells were cultured in Dulbecco’s Modified Eagle medium (DMEM) (Life Technologies, Carlsbad, CA) mixed with 10% (v/v) FBS and 1% penicillin–streptomycin (Gibco, 10,000 U/mL). The cancer cells were first seeded into the 96-well plates at a cell density of 8000 per well for 20–24 h at 37 °C. Then, the cells were starved by switching the FBS containing complete growth medium to FBS lacking serum-free medium for 4 h. Peptides were dissolved to a series of final concentrations from 10^−9 to 10^−4 M in ddH2O. After starvation, 1 μL of the peptide with 99 μL of the serum-free medium was added to the plate and then cultured for 20–24 h.; 10 µL of MTT (3-(4,5-dimethylthiazol-2-yl)-2,5-diphenyltetrazolium bromide, 5 mg/mL, Sigma, UK) were loaded into each well in the dark and incubated at 37 °C. Subsequently, the liquid in each well was removed completely before […] of DMSO was added to each well to dissolve the formazan. The plate was read at 570 nm using a Synergy HT plate reader.

[5] = test system: NCI-H838 non-small-cell lung cancer cell line; format: cell-based, human
Protocol: as §2

[6] = test system: U251MG glioblastoma astrocytoma cell line; format: cell-based, human
Protocol: as §2

[7] = test system: Gram-positive bacteria biofilm; format: cell-based; conditions: range over Gram-positive bacteria
Protocol: (§3) The minimum biofilm inhibition and minimum biofilm eradication concentrations were obtained by use of the MBIC and MBEC assays. The anti-biofilm activity of the peptides was evaluated by use of S. aureus (ATCC 6538), MRSA (NCTC 12493), E. faecalis (NCTC 12493), E. coli (ATCC CRM 8739), K. pneumoniae (ATCC43816), and P. aeruginosa (ATCC CRM 9027).
(§4) For the MBIC assay, the bacteria were cultured in tryptic soy broth (TSB) broth with 1% glucose for Gram-positive bacteria biofilm and Luria Bertani (LB) broth with 1% glucose for Gram-negative bacteria biofilm. Bacteria were inoculated, subcultured, and diluted in the same method described before. The peptides were prepared in a concentration of 1–128 µM; 1 µL of peptide and 99 µL of subcultured bacteria were mixed in 96 well plates and cultured at 37 °C with a shear force of 200 rpm in a humid environment for 20–24 h. Then, the plate was washed with 130 µL of PBS twice, and 130 µL of methanol was added to stabilize the biofilm overnight; then, the plate was dyed with 100 mL of 0.5% crystal violet for 15 min. The stained biofilm was then washed once more and allowed to dry overnight. The stain was dissolved in acetic acid at a 30% concentration, and it was shaken for 15 min to ensure homogeneity. A Synergy HT plate reader was then used to read the plate at 595 nm. […]

Gram-positive bacteria = experiment: MIC assay, summary over Gram-positive bacteria; format: cell-based; conditions: range over three Gram-positive bacteria
Protocol: as §1

horse erythrocytes [8] = conditions: red cells of horse, 2 h
Protocol: (§5) The hemolytic activity of the peptides on mammalian erythrocytes was examined using 2% defibrinated horse blood (TCS Biosciences Ltd., Buckinghamshire, UK). Firstly, the defibrinated horse blood was washed; 2 mL of horse blood was added into a 50 mL tube; then, 30 mL of sterilized PBS was added dropwise into the tube, and the tube was mixed in a shaking bed and then centrifuged at 930× g for 10 min. The procedure was repeated until the supernatant of the centrifuge tube was clear. Afterward, the blood cell pellet was dispersed to make a 4% suspension (v/v) by adding 50 mL of sterilized PBS. Peptides were dissolved using PBS to achieve final concentrations of 1–128 μM and then mixed with the blood cell suspensions in 1.5-mL tubes. The blood cell suspensions treated with 0.1% Triton X-100 and PBS were used as positive controls and negative controls, respectively. Then the peptide-blood mixture was incubated at 37 °C degrees for 2 h in an incubator. After incubation, the tubes were centrifuged at 930× g for 10 min, and 100 µL of the supernatants were loaded into wells of the 96-well plates. The absorbance was obtained by Synergy HT plate reader at 490 nm. The hemolytic activity was calculated using the formula, hemolysis = (absorbance of experimental groups − absorbance of negative control))/(absorbance of positive control − absorbance of negative control) × 100%.

[9] = test system: Gram-negative bacteria biofilm; conditions: range over Gram-negative bacteria
Protocol: as §3, §4

horse erythrocytes [10] = experiment: Haemolytic activity evaluation; conditions: at the peptide's MIC value for E. coli; horse erythrocytes in PBS, 2 h at 37 °C, absorbance 490 nm, Triton X-100 positive control, n = 9; listed as KIL-1
Protocol: as §5

Row | SMILES | MIC (E. coli (NCTC 8739)) [µM] | MBC (E. coli (NCTC 8739)) [µM] | MIC (E. faecalis (NCTC 12697)) [µM] | MBC (E. faecalis (NCTC 12697)) [µM] | MIC [1] [µM] | MBC [1] [µM] | MIC (MRSA (ATCC 12493)) [µM] | MBC (MRSA (ATCC 12493)) [µM] | MIC [2] [µM] | MBC [2] [µM] | MBC [3] | IC50 [4] [µM] | IC50 [5] [µM] | IC50 [6] [µM] | MIC [3] [µM] | further results
1 | CC[C@H](C)[C@H](NC(=O)[C@H](CC(=O)O)NC(=O)[C@H](Cc1ccccc1)NC(=O)[C@H](CC(C)C)NC(=O)CN)C(=O)N[C@H](C(=O)N[C@@H](CCCCN)C(=O)N[C@@H](CCCCN)C(=O)N[C@@H](CC(C)C)C(=O)N[C@@H](C)C(=O)N[C@@H](CCCCN)C(=O)N[C@@H](CC(C)C)C(=O)N[C@@H](C)C(=O)N[C@@H](CCC(=O)O)C(=O)N[C@@H](CO)C(=O)N[C@@H](Cc1ccccc1)C(N)=O)[C@@H](C)CC [KLA-2] (H-GLFDIIKKLAKLAESF-NH2) | 2 | 2 | 16 | 16 | 4 | 4 | 4 | 4 | 16 | 16 | 2/2 μM | 3.55 | 4.6 ± 0.12 | 5 ± 0.12 | – | MBIC [7]: 2 to 16 µM
2 | CC[C@H](C)[C@H](NC(=O)[C@H](CCCCN)NC(=O)[C@H](CCCCN)NC(=O)[C@@H](NC(=O)[C@@H](NC(=O)[C@H](CCCCN)NC(=O)[C@H](CCCCN)NC(=O)[C@@H](NC(=O)[C@@H](NC(=O)[C@H](CCCCN)NC(=O)[C@H](CCCCN)NC(=O)[C@@H](NC(=O)[C@@H](NC(=O)[C@H](CC(=O)O)NC(=O)[C@H](Cc1ccccc1)NC(=O)[C@H](CC(C)C)NC(=O)CN)[C@@H](C)CC)[C@@H](C)CC)[C@@H](C)CC)[C@@H](C)CC)[C@@H](C)CC)[C@@H](C)CC)C(N)=O [IK-3] (H-GLFDIIKKIIKKIIKKI-NH2) | 4 | 4 | 16 | 32 | 8 | 8 | 16 | 32 | 16 | 16 | 16 µM | 3.4 ± 0.71 | 2.99 | 3.3 ± 0.63 | 16 | –
3 | CC[C@H](C)[C@H](NC(=O)[C@H](CCCCN)NC(=O)[C@H](CCCCN)NC(=O)[C@@H](NC(=O)[C@@H](NC(=O)[C@H](CC(=O)O)NC(=O)[C@H](Cc1ccccc1)NC(=O)[C@H](CC(C)C)NC(=O)CN)[C@@H](C)CC)[C@@H](C)CC)C(=O)N[C@@H](C)C(=O)N[C@@H](CCC(=O)O)C(=O)N[C@@H](CO)C(=O)N[C@@H](Cc1ccccc1)C(N)=O [aurein 1.2] (H-GLFDIIKKIAESF-NH2) | 16 | 16 | 32 | 32 | 64 | 64 | 16 | 16 | 64 | 128 | 8 µM | 25.9 ± 0.79 | 26.9 | 38.4 | 8 | MICs against Gram-positive bacteria (Gram-positive bacteria): 8 to 32 µM; HC50 (horse erythrocytes [8]): around 30 μM; Hemolysis (horse erythrocytes [8]): 20.56%; concentration effective in prevention of biofilm formation (MBIC) [9]: 64 to 128 µM
4 | CC[C@H](C)[C@H](NC(=O)[C@H](CC(=O)O)NC(=O)[C@H](Cc1ccccc1)NC(=O)[C@H](CC(C)C)NC(=O)CN)C(=O)N[C@H](C(=O)N[C@@H](CCCCN)C(=O)N[C@@H](CCCCN)C(=O)N[C@@H](CC(C)C)C(=O)N[C@@H](C)C(=O)N[C@@H](CCC(=O)O)C(=O)N[C@@H](CO)C(=O)N[C@@H](Cc1ccccc1)C(N)=O)[C@@H](C)CC [KLA-1] (H-GLFDIIKKLAESF-NH2) | 8 | 16 | 32 | 32 | 32 | 32 | 16 | 32 | 64 | 128 | 16 µM | 17.6 ± 0.79 | 29.4 ± 0.22 | 34.1 ± 0.21 | 16 | Hemolysis (horse erythrocytes [10]): almost no hemolysis was detected
5 | CC[C@H](C)[C@H](NC(=O)[C@H](CCCCN)NC(=O)[C@H](CCCCN)NC(=O)[C@@H](NC(=O)[C@@H](NC(=O)[C@H](CCCCN)NC(=O)[C@H](CCCCN)NC(=O)[C@@H](NC(=O)[C@@H](NC(=O)[C@H](CC(=O)O)NC(=O)[C@H](Cc1ccccc1)NC(=O)[C@H](CC(C)C)NC(=O)CN)[C@@H](C)CC)[C@@H](C)CC)[C@@H](C)CC)[C@@H](C)CC)C(=O)N[C@@H](C)C(=O)N[C@@H](CCC(=O)O)C(=O)N[C@@H](CO)C(=O)N[C@@H](Cc1ccccc1)C(N)=O [IK-1] (H-GLFDIIKKIIKKIAESF-NH2) | 8 | 8 | 8 | 16 | >128 | >128 | 16 | 16 | 16 | 32 | 8 µM | 3 ± 0.76 | 3.5 ± 0.74 | 3.4 ± 0.71 | 8 | –
6 | CC[C@H](C)[C@H](NC(=O)[C@H](CCCCN)NC(=O)[C@H](CCCCN)NC(=O)[C@@H](NC(=O)[C@@H](NC(=O)[C@H](CCCCN)NC(=O)[C@H](CCCCN)NC(=O)[C@@H](NC(=O)[C@@H](NC(=O)[C@H](CCCCN)NC(=O)[C@H](CCCCN)NC(=O)[C@@H](NC(=O)[C@@H](NC(=O)[C@H](CC(=O)O)NC(=O)[C@H](Cc1ccccc1)NC(=O)[C@H](CC(C)C)NC(=O)CN)[C@@H](C)CC)[C@@H](C)CC)[C@@H](C)CC)[C@@H](C)CC)[C@@H](C)CC)[C@@H](C)CC)C(=O)N[C@@H](C)C(=O)N[C@@H](CCC(=O)O)C(=O)N[C@@H](CO)C(=O)N[C@@H](Cc1ccccc1)C(N)=O [IK-2] (H-GLFDIIKKIIKKIIKKIAESF-NH2) | 8 | 8 | >128 | >128 | 16 | 16 | >128 | >128 | 64 | 128 | >128 µM | 3.2 ± 0.87 | 3.7 ± 0.77 | 3.6 ± 0.18 | >128 | –
